Results reported in US20230151025A1, “SUBSTITUTED THIAZOLOPYRIDINES, SALTS THEREOF AND THEIR USE AS HERBICIDALLY ACTIVE SUBSTANCES” (Bayer Aktiengesellschaft, priority 2020, published 2023).

Legend:
Assay type in all cases: in vivo
Setaria viridis (SETVI) [1] = assay: Herbicidal post-emergence action (B), 1280 g/ha; settings: rated visually after about 3 weeks vs untreated controls
Outline: (§1)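 Foliar post-emergence treatment of one-leaf-stage weeds with WP or EC preparations in water plus 0.5% additive, sprayed at 600 L/ha. Visual efficacy was assessed after roughly 3 weeks relative to untreated controls, 100% being complete kill.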

[2] = test system: Echinochloa crus-galli (ECHCG); assay: Herbicidal post-emergence action (B), 1280 g/ha; settings: rated visually after about 3 weeks vs untreated controls
Outline: as §1

[3] = test system: Amaranthus retroflexus (AMARE); assay: Herbicidal post-emergence action (B), 1280 g/ha; settings: rated visually after about 3 weeks vs untreated controls
Outline: as §1

Veronica persica (VERPE) [4] = assay: Herbicidal post-emergence action (B), 1280 g/ha
Outline: as §1

[5] = test system: Kochia scoparia (KCHSC; Bassia scoparia); assay: Herbicidal post-emergence action (B), 1280 g/ha
Outline: as §1

Stellaria media (STEME) [6] = assay: Herbicidal pre-emergence action (A), 1280 g/ha; settings: visual grading after ca. 3 weeks vs untreated controls
Outline: (§2)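 Greenhouse pre-emergence test: formulated compound (WP/EC plus 0.5% additive, 600 l/ha water) applied to the soil over sown seeds in sandy loam. Percent herbicidal effect was rated by eye after ca. 3 weeks relative to untreated pots.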

[7] = test system: Matricaria inodora (MATIN); assay: Herbicidal pre-emergence action (A), 1280 g/ha; settings: visual grading after ca. 3 weeks vs untreated controls
Outline: as §2

Lolium rigidum (LOLRI) [8] = assay: Herbicidal pre-emergence action (A), 1280 g/ha; settings: visual grading after ca. 3 weeks vs untreated controls, 100% = plants have died off, 0% = as control plants
Outline: as §2

[9] = test system: Echinochloa crus-galli (ECHCG); assay: Herbicidal pre-emergence action (A), 1280 g/ha; settings: visual grading after ca. 3 weeks vs untreated controls, 100% = plants have died off, 0% = as control plants
Outline: as §2

Poa annua (POAAN) [10] = assay: Herbicidal pre-emergence action (A), 1280 g/ha; settings: visual grading after ca. 3 weeks vs untreated controls, 100% = plants have died off, 0% = as control plants
Outline: as §2

Veronica persica (VERPE) [11] = assay: Herbicidal pre-emergence action (A), 1280 g/ha; settings: visual grading after ca. 3 weeks vs untreated controls
Outline: as §2

[12] = test system: Kochia scoparia (KCHSC; Bassia scoparia); assay: Herbicidal pre-emergence action (A), 1280 g/ha; settings: visual grading after ca. 3 weeks vs untreated controls
Outline: as §2

Setaria viridis (SETVI) [13] = assay: Herbicidal pre-emergence action (C), 320 g/ha; settings: ca. 3 weeks
Description: (§3) ABUTH: Abutilon theophrasti AGSTE: Agrostis tenuis ALOMY: Alopecurus myosuroides AMARE Amaranthus retroflexus DIGSA: Digitaria sanguinalis ECHCG: Echinochloa crus-galli KCHSC: Kochia scoparia LOLRI: Lolium rigidum MATIN: Matricaria inodora POAAN: Poa annua POLCO: Polygonum convolvulus SETVI: Setaria viridis STEME: Stellaria media VERPE: Veronica persica VIOTR: Viola tricolor
(§4) Seeds of mono- and dicotyledonous weed plants and crop plants were sown, in plastic or organic planting pots, in sandy loam and covered with soil. The compounds according to the invention, formulated in the form of wettable powders (WP) or as emulsifiable concentrates (EC), were applied to the surface of the covering soil as aqueous suspension or emulsion, with the addition of 0.5% of an additive, at an application rate of 600 l of water/ha (converted).
(§5) Following treatment, the pots were placed in a greenhouse and kept under optimum growth conditions for the test plants. The visual grading of the damage to the test plants was carried out after ca. 3 weeks in comparison to untreated controls (herbicidal effect in percent (%): 100% effect=plants have died off, 0% effect=as control plants).
(§6) Tables C1 to C13 below show the effects of selected compounds of the general formula (I) according to table 1 on various harmful plants and an application rate corresponding to 320 g/ha obtained by the experimental procedure mentioned above.

[14] = test system: Alopecurus myosuroides (ALOMY); assay: Herbicidal pre-emergence action (C), 320 g/ha; settings: ca. 3 weeks
Description: as §3, §4, §5, §6

Lolium rigidum (LOLRI) [15] = assay: Herbicidal pre-emergence action (C), 320 g/ha; settings: ca. 3 weeks
Description: as §3, §4, §5, §6

[16] = test system: Echinochloa crus-galli (ECHCG); assay: Herbicidal pre-emergence action (C), 320 g/ha; settings: ca. 3 weeks
Description: as §3, §4, §5, §6

Setaria viridis (SETVI) [17] = assay: Herbicidal post-emergence action (D), 320 g/ha; settings: ca. 3 weeks
Description: as §3
(§7) Seeds of mono- and dicotyledonous weed plants and crop plants were sown, in plastic or organic planting pots, in sandy loam, covered with soil and grown in a greenhouse under controlled growth conditions. 2 to 3 weeks after sowing, the test plants were sprayed in the single-leaf stage. The compounds according to the invention, formulated in form of wettable powders (WP) or as emulsifiable concentrates (EC), were sprayed onto the green plant parts as aqueous suspension or emulsion, with the addition of 0.5% of an additive, at an application rate of 600 l of water/ha (converted). The test plants were placed in the greenhouse for ca. 3 weeks under optimum growth conditions, and then the effect of the preparations was assessed visually in comparison with untreated controls (herbicidal effect in percent (%): 100% effect=plants have died off, 0% effect=as control plants).
(§8) Tables D1 to D13 below show the effects of selected compounds of the general formula (I) according to table 1 on various harmful plants and an application rate corresponding to 320 g/ha obtained by the experimental procedure mentioned above.

[18] = test system: Polygonum convolvulus (POLCO); assay: Herbicidal post-emergence action (D), 320 g/ha; settings: ca. 3 weeks
Description: as §3, §7, §8

[19] = test system: Echinochloa crus-galli (ECHCG); assay: Herbicidal post-emergence action (D), 320 g/ha; settings: ca. 3 weeks
Description: as §3, §7, §8

Veronica persica (VERPE) [20] = assay: Herbicidal post-emergence action (D), 320 g/ha; settings: ca. 3 weeks
Description: as §3, §7, §8

[21] = test system: Matricaria inodora (MATIN); assay: Herbicidal post-emergence action (B), 1280 g/ha; settings: rated visually after about 3 weeks vs untreated controls
Outline: as §1

Poa annua (POAAN) [22] = assay: Herbicidal post-emergence action (B), 1280 g/ha; settings: rated visually after about 3 weeks vs untreated controls
Outline: as §1

Setaria viridis (SETVI) [23] = assay: Herbicidal pre-emergence action (A), 1280 g/ha; settings: visual grading after ca. 3 weeks vs untreated controls
Outline: as §2

[24] = test system: Digitaria sanguinalis (DIGSA); assay: Herbicidal pre-emergence action (A), 1280 g/ha; settings: visual grading after ca. 3 weeks vs untreated controls, 100% = plants have died off, 0% = as control plants
Outline: as §2

[25] = test system: Amaranthus retroflexus (AMARE); assay: Herbicidal pre-emergence action (A), 1280 g/ha; settings: visual grading after ca. 3 weeks vs untreated controls
Outline: as §2

Stellaria media (STEME) [26] = assay: Herbicidal post-emergence action (B), 1280 g/ha
Outline: as §1

[27] = test system: Alopecurus myosuroides (ALOMY); assay: Herbicidal post-emergence action (B), 1280 g/ha; settings: rated visually after about 3 weeks vs untreated controls
Outline: as §1

[28] = test system: Digitaria sanguinalis (DIGSA); assay: Herbicidal post-emergence action (B), 1280 g/ha; settings: rated visually after about 3 weeks vs untreated controls
Outline: as §1

[29] = test system: Alopecurus myosuroides (ALOMY); assay: Herbicidal pre-emergence action (A), 1280 g/ha; settings: visual grading after ca. 3 weeks vs untreated controls, 100% = plants have died off, 0% = as control plants
Outline: as §2

[30] = test system: Amaranthus retroflexus (AMARE); assay: Herbicidal pre-emergence action (C), 320 g/ha; settings: ca. 3 weeks
Description: as §3, §4, §5, §6

Veronica persica (VERPE) [31] = assay: Herbicidal pre-emergence action (C), 320 g/ha; settings: ca. 3 weeks
Description: as §3, §4, §5, §6

[32] = test system: Amaranthus retroflexus (AMARE); assay: Herbicidal post-emergence action (D), 320 g/ha; settings: ca. 3 weeks
Description: as §3, §7, §8

[33] = test system: Abutilon theophrasti (ABUTH); assay: Herbicidal post-emergence action (B), 1280 g/ha; settings: rated visually after about 3 weeks vs untreated controls
Outline: as §1

[34] = test system: Alopecurus myosuroides (ALOMY); assay: Herbicidal post-emergence action (D), 320 g/ha; settings: ca. 3 weeks
Description: as §3, §7, §8

SMILES | herbicidal activity ECHCG [2] [%] | herbicidal activity AMARE [3] [%] | herbicidal effect VERPE (Veronica persica (VERPE) [4]) [%] | herbicidal effect KCHSC [5] [%] | herbicidal effect STEME (Stellaria media (STEME) [6]) [%] | herbicidal effect MATIN [7] [%] | LOLRI, herbicidal effect in percent (%) (Lolium rigidum (LOLRI) [8]) | ECHCG, herbicidal effect in percent (%) [9] [%] | POAAN, herbicidal effect in percent (%) (Poa annua (POAAN) [10]) | herbicidal effect VERPE (Veronica persica (VERPE) [11]) [%] | herbicidal effect KCHSC [12] [%] | herbicidal effect ALOMY [14] [%] | herbicidal effect ECHCG [16] [%] | herbicidal activity MATIN [21] [%] | herbicidal activity POAAN (Poa annua (POAAN) [22]) [%] | herbicidal effect SETVI (Setaria viridis (SETVI) [23]) [%] | DIGSA, herbicidal effect in percent (%) [24] [%] | herbicidal effect AMARE [25] [%] | herbicidal effect STEME (Stellaria media (STEME) [26]) [%] | herbicidal activity DIGSA [28] [%] | further results
CCCc1cc2scnc2nc1-c1ccccc1F [Example I-185] | 90 | 100 | 90 | 90 | 90 | 90 | 100 | 100 | 100 | 90 | 90 | 90 | 100 | – | – | – | – | – | – | – | herbicidal activity SETVI (Setaria viridis (SETVI) [1]): 90%; herbicidal effect SETVI (Setaria viridis (SETVI) [13]): 100%; herbicidal effect LOLRI (Lolium rigidum (LOLRI) [15]): 100%; herbicidal effect SETVI (Setaria viridis (SETVI) [17]): 90%; herbicidal effect POLCO [18]: 80%; herbicidal effect ECHCG [19]: 80%; herbicidal effect VERPE (Veronica persica (VERPE) [20]): 90%
Fc1cccc(-c2ccc3scnc3n2)c1 [Example I-118] | – | 90 | 90 | – | 100 | 90 | 100 | – | 100 | – | – | – | – | 100 | 100 | 100 | 100 | 90 | – | – | –
CCc1cc2sc(S)nc2nc1-c1ccccc1C [Example I-158] | – | 90 | 90 | – | 90 | – | – | 100 | – | – | – | – | – | 100 | 100 | – | – | 90 | – | – | –
CCc1cc2sc([S+](C)[O-])nc2nc1-c1ccccc1C (centres unmarked) [Example I-022] | – | 100 | – | 90 | 90 | – | – | – | – | – | – | – | – | 90 | – | – | – | – | – | – | –
C=Cc1cc2scnc2nc1-c1ccccc1F [Example I-072] | 90 | 100 | 100 | 90 | 90 | 100 | 100 | 100 | 100 | 100 | 100 | 100 | 100 | 90 | 100 | 100 | 100 | 100 | 90 | 90 | herbicidal activity SETVI (Setaria viridis (SETVI) [1]): 90%; herbicidal activity ALOMY [27]: 100%; ALOMY, herbicidal effect in percent (%) [29]: 100%; herbicidal effect SETVI (Setaria viridis (SETVI) [13]): 100%; herbicidal effect LOLRI (Lolium rigidum (LOLRI) [15]): 100%; herbicidal effect AMARE [30]: 80%; herbicidal effect VERPE (Veronica persica (VERPE) [31]): 80%; herbicidal effect POLCO [18]: 80%; herbicidal effect AMARE [32]: 80%
Clc1cc2scnc2nc1-c1ccsc1 [Example I-191] | 100 | – | 100 | 90 | 100 | 90 | 100 | 100 | 100 | 100 | 90 | 90 | 100 | 90 | 100 | 100 | – | 90 | 90 | – | herbicidal activity ALOMY [27]: 100%; herbicidal activity ABUTH [33]: 90%; ALOMY, herbicidal effect in percent (%) [29]: 100%; herbicidal effect ALOMY [34]: 80%; herbicidal effect ECHCG [19]: 90%
COc1ccccc1-c1nc2nc(SC)sc2cc1C [Example I-007] | – | 100 | 90 | 90 | – | – | – | – | 90 | – | – | – | – | 100 | – | 100 | – | – | 100 | 100 | herbicidal activity ABUTH [33]: 90%
CCc1cc2scnc2nc1-c1ccccc1OC [Example I-111] | – | 100 | 90 | 100 | 100 | 90 | 100 | 100 | 100 | 90 | 100 | – | – | – | 100 | 100 | 100 | 90 | 90 | 100 | ALOMY, herbicidal effect in percent (%) [29]: 90%; herbicidal effect VERPE (Veronica persica (VERPE) [20]): 80%
Cc1cc2sc(S(C)(=O)=O)nc2nc1-c1ccccc1F [Example I-021] | – | 90 | – | 100 | 100 | – | 100 | – | 100 | 90 | 90 | – | – | 100 | 100 | 100 | – | 100 | – | – | –
